According to patent US20230219904A1 (SYNGENTA CROP PROTECTION AG, priority 2020, published 2023):

How the values were obtained:
Type in all cases: in vivo
Settings in all cases: evaluated after 13 days
[1] = test system: Amaranthus retoflexus (AMARE); assay: Pre-emergence herbicidal glasshouse test (Table B1)
Outline: (§1)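 In this pot assay, seedlings or sown soil receive a spray of formulated active ingredient (acetone/water 50:50, 0.5% Tween 20) at 500 g/h unless indicated. Conditions: 24/16° C day/night, 14 hours light, 65% humidity, watering twice daily. Injury is scored after 13 days, 1 (0-19%) to 5 (80-100%).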

[2] = test system: Ipomoea hederacea (IPOHE); assay: as above
Outline: as §1

[3] = test system: Abutilon theophrasti (ABUTH); assay: as above
Outline: as §1

[4] = test system: Echinochloa crus-galh (ECHCG); assay: as above
Outline: as §1

[5] = test system: Setaria faberi (SETFA); assay: as above
Outline: as §1

[6] = test system: Amaranthus retoflexus (AMARE); assay: Post-emergence herbicidal glasshouse test (Table B1)
Outline: as §1

[7] = test system: Ipomoea hederacea (IPOHE); assay: as above
Outline: as §1

[8] = test system: Abutilon theophrasti (ABUTH); assay: as above
Outline: as §1

[9] = test system: Echinochloa crus-galh (ECHCG); assay: as above
Outline: as §1

[10] = test system: Setaria faberi (SETFA); assay: as above
Outline: as §1

SMILES | PRE Application AMARE, percentage damage on five-point scale ([1]; applied at 125 g/ha) | PRE Application IPOHE, percentage damage on five-point scale ([2]; applied at 125 g/ha) | PRE Application ABUTH, percentage damage on five-point scale ([3]; applied at 125 g/ha) | PRE Application ECHCG, percentage damage on five-point scale ([4]; applied at 125 g/ha) | PRE Application SETFA, percentage damage on five-point scale ([5]; applied at 125 g/ha) | POST Application AMARE, percentage damage on five-point scale ([6]; applied at 125 g/ha) | POST Application IPOHE, percentage damage on five-point scale ([7]; applied at 125 g/ha) | POST Application ABUTH, percentage damage on five-point scale ([8]; applied at 125 g/ha) | POST Application ECHCG, percentage damage on five-point scale ([9]; applied at 125 g/ha) | POST Application SETFA, percentage damage on five-point scale ([10]; applied at 125 g/ha) | PRE Application AMARE, percentage damage on five-point scale ([1]; applied at 500 g/h) | PRE Application IPOHE, percentage damage on five-point scale ([2]; applied) | PRE Application ABUTH, percentage damage on five-point scale ([3]; applied at 500 g/h) | PRE Application ECHCG, percentage damage on five-point scale ([4]; applied at 500 g/h) | PRE Application SETFA, percentage damage on five-point scale ([5]; applied at 500 g/h) | POST Application AMARE, percentage damage on five-point scale ([6]; applied at 500 g/h) | POST Application IPOHE, percentage damage on five-point scale ([7]; applied at 500 g/h) | POST Application ABUTH, percentage damage on five-point scale ([8]; applied at 500 g/h) | POST Application ECHCG, percentage damage on five-point scale ([9]; applied at 500 g/h) | POST Application SETFA, percentage damage on five-point scale ([10]; applied at 500 g/h)
CCC(=O)N(CC)c1c(OC(F)F)ccc(C(=O)Nc2nnnn2C)c1Cl [Compound 1.021] | 3 (3=40-59%) | 3 (3=40-59%) | 5 (5=80-100%) | 3 (3=40-59%) | 3 (3=40-59%) | 3 (3=40-59%) | 3 (3=40-59%) | 4 (4=60-79%) | 4 (4=60-79%) | 4 (4=60-79%) | – | – | – | – | – | – | – | – | – | –
CCC(=O)Nc1c(OC(F)F)ccc(C(=O)Nc2nnnn2C)c1Cl [Compound 1.022] | 5 (5=80-100%) | 4 (4=60-79%) | 5 (5=80-100%) | 5 (5=80-100%) | 5 (5=80-100%) | 5 (5=80-100%) | 4 (4=60-79%) | 5 (5=80-100%) | 5 (5=80-100%) | 5 (5=80-100%) | – | – | – | – | – | – | – | – | – | –
Cn1nnnc1NC(=O)c1ccc(OC(F)F)c(N2CCCCC2=O)c1Cl [Compound 1.023] | 5 (5=80-100%) | 2 (2=20-39%) | 5 (5=80-100%) | 5 (5=80-100%) | 5 (5=80-100%) | 5 (5=80-100%) | 5 (5=80-100%) | 5 (5=80-100%) | 5 (5=80-100%) | 5 (5=80-100%) | – | – | – | – | – | – | – | – | – | –
CCC(=O)N(C)c1c(OC(F)F)ccc(C(=O)Nc2nnnn2C)c1Cl [Compound 1.024] | 5 (5=80-100%) | 4 (4=60-79%) | 5 (5=80-100%) | 4 (4=60-79%) | 4 (4=60-79%) | 3 (3=40-59%) | 4 (4=60-79%) | 4 (4=60-79%) | 4 (4=60-79%) | 4 (4=60-79%) | – | – | – | – | – | – | – | – | – | –
CC(F)C(=O)Nc1c(OC(F)F)ccc(C(=O)Nc2nnnn2C)c1Cl (centres unmarked) [Compound 1.025] | 5 (5=80-100%) | 4 (4=60-79%) | 5 (5=80-100%) | 3 (3=40-59%) | 3 (3=40-59%) | 5 (5=80-100%) | 2 (2=20-39%) | 4 (4=60-79%) | 5 (5=80-100%) | 4 (4=60-79%) | – | – | – | – | – | – | – | – | – | –
CCN(C(=O)C(C)F)c1c(OC(F)F)ccc(C(=O)Nc2nnnn2C)c1Cl (centres unmarked) [Compound 1.026] | 5 (5=80-100%) | 4 (4=60-79%) | 5 (5=80-100%) | 5 (5=80-100%) | 5 (5=80-100%) | 4 (4=60-79%) | 4 (4=60-79%) | 4 (4=60-79%) | 5 (5=80-100%) | 4 (4=60-79%) | – | – | – | – | – | – | – | – | – | –
COc1ccc(C(=O)Nc2nnnn2C)c(Cl)c1NC(=O)C(C)F (centres unmarked) [Compound 1.028, 2-chloro-3-(2-fluoropropanoylamino)-4-methoxy-N-(1-methyltetrazol-5-yl)benzamide] | – | – | – | – | – | – | – | – | – | – | 5 (5=80-100%) | 3 (3=40-59%) | 5 (5=80-100%) | 4 (4=60-79%) | 3 (3=40-59%) | 5 (5=80-100%) | 4 (4=60-79%) | 5 (5=80-100%) | 3 (3=40-59%) | 4 (4=60-79%)
COc1ccc(C(=O)Nc2nnnn2C)c(Cl)c1NC(=O)C1CC1 [Compound 1.029] | – | – | – | – | – | – | – | – | – | – | 5 (5=80-100%) | 4 (4=60-79%) | 5 (5=80-100%) | 5 (5=80-100%) | 5 (5=80-100%) | 5 (5=80-100%) | 5 (5=80-100%) | 5 (5=80-100%) | 5 (5=80-100%) | 5 (5=80-100%)
COc1ccc(C(=O)Nc2nnnn2C)c(Cl)c1NC(C)=O [Compound 1.030, 3-acetamido-2-chloro-4-methoxy-N-(1-methyltetrazol-5-yl)benzamide] | – | – | – | – | – | – | – | – | – | – | 5 (5=80-100%) | 3 (3=40-59%) | 5 (5=80-100%) | 3 (3=40-59%) | 3 (3=40-59%) | 5 (5=80-100%) | 4 (4=60-79%) | 5 (5=80-100%) | 5 (5=80-100%) | 5 (5=80-100%)
CC(=O)Nc1c(OC(F)(F)C(F)F)ccc(C(=O)Nc2nnnn2C)c1Cl [Compound 1.031] | 5 (5=80-100%) | 3 (3=40-59%) | 4 (4=60-79%) | 4 (4=60-79%) | 3 (3=40-59%) | 4 (4=60-79%) | 4 (4=60-79%) | 4 (4=60-79%) | 4 (4=60-79%) | 4 (4=60-79%) | – | – | – | – | – | – | – | – | – | –
Cn1nnnc1NC(=O)c1ccc(OC(F)(F)F)c(NC(=O)C2CC2(F)F)c1Cl (centres unmarked) [Compound 1.032] | – | – | – | – | – | – | – | – | – | – | 5 (5=80-100%) | 3 (3=40-59%) | 5 (5=80-100%) | 5 (5=80-100%) | 5 (5=80-100%) | 5 (5=80-100%) | 5 (5=80-100%) | 5 (5=80-100%) | 5 (5=80-100%) | 5 (5=80-100%)
